Read-outs that look alike come from different tables or passages of the source.
Assays:
[1] = test system: approximately 60 different cell lines; assay: NCI in vitro disease-oriented human tumor cell screen, all cell lines; format: cell-based; conditions: Homo sapiens; calculated from all cell lines tested (Table II); read-out: average logGI50 (converted)
Excerpt: The cell lines tested included cells derived from the following solid tumor types: leukemia, non-small cell lung, colon, the central nervous system (CNS), melanoma, ovarian, renal, prostate, and breast cancers.

[2] = test system: tubulin; assay: inhibition of tubulin polymerization (ITP); format: biochemical, bovine; conditions: ± SD; tubulin 1.2 mg/mL, 26° C., 20 min; read-out: ITP IC50 (inhibition of tubulin polymerization)
Procedure: Electrophoretically homogeneous bovine brain tubulin was purified as described previously (Hamel, et al., 1984). […] Dihydrocombretastatin A-4 was prepared as described previously (Getahun et al., 1992).
The tubulin polymerization assay was performed as described previously (Li et al., 1994). In brief, tubulin at 1.2 mg/mL ([…]) was preincubated for 15 min at 26° C. in a 0.24 mL volume in 0.8M monosodium glutamate (pH 6.6 with NaOH in a 2M stock solution) with varying drug concentrations. The drug stock solutions were in dimethyl sulfoxide, and the final solvent concentration was 4% (v/v). […] All concentrations are in terms of the final reaction volume (0.25 mL). The reaction mixtures were chilled on ice, and […] of 10 mM GTP was added to each reaction mixture. Samples were transferred to cuvettes held at 0° C. by an electronic temperature controller in Gilford spectrophotometers. Baselines were established at 350 nm, and polymerization initiated by a temperature jump to 26° C. The jump took about 50 sec to complete. After 20 min, turbidity readings were recorded, and the temperature controller was set to 0° C. When depolymerization was complete, turbidity readings were again recorded. […] IC50 values were obtained graphically from inhibition of polymerization by different drug concentrations. Four spectrophotometers were used for each experimental sequence, with at least two control reactions (no drug) in each set.

[3] = test system: SF-268; assay: NCI in vitro tumor cell screen, SF-268 CNS tumor; format: cell-based; conditions: Homo sapiens
Procedure: (§1) Selected 2-phenyl-4-quinolones were assayed using an in vitro, disease-oriented antitumor screen run by the National Cancer Institute (NCI) (e.g., Boyd 1989). The screen involved approximately 60 different cell lines and is a useful indicator of in vivo antitumor activity for a broad variety of tumor types (Grever et al., 1992; Monks et al., 1991). The cell lines tested included cells derived from the following solid tumor types: leukemia, non-small cell lung, colon, the central nervous system (CNS), melanoma, ovarian, renal, prostate, and breast cancers.
(§2) melonoma; SF268 and SF295, CNS tumor cell lines; DU145, prostate cancer

[4] = test system: protein-linked DNA; assay: breaks in protein-linked DNA; conditions: compared with VP-16
[5] = test system: tubulin; assay: inhibition of radiolabeled colchicine binding to tubulin (ICB); set-up: species or system bovine; conditions: evaluated only when polymerization IC50 ≤ 1.0 μM; inhibitor equimolar with [3H]colchicine, 5-fold molar excess over tubulin
Procedure: Studies conducted in support of the present invention indicate that one mode of action of the 2-phenyl-4-quinolone compounds, as antitumor agents, is an ability to bind to tubulin and inhibit cell mitosis. […] […].
[…]. […] […].
Electrophoretically homogeneous bovine brain tubulin was purified as described previously (Hamel, et al., 1984). Combretastatin A-4 was a generous gift of Dr. G. R. Pettit, Arizona State University. Dihydrocombretastatin A-4 was prepared as described previously (Getahun et al., 1992). […]

[6] = test system: MDA-N; assay: NCI in vitro tumor cell screen, MDA-N breast cancer; format: cell-based; conditions: Homo sapiens
Procedure: as §1

[7] = test system: SK-Mel-5; assay: NCI in vitro tumor cell screen, SK-Mel-5 melanoma; format: cell-based; conditions: Homo sapiens
Procedure: as §1, §2

[8] = test system: OVCAR-3; assay: NCI in vitro tumor cell screen, OVCAR-3 ovarian cancer; format: cell-based; conditions: Homo sapiens
Procedure: as §1

[9] = test system: RXF-393; assay: NCI in vitro tumor cell screen, RXF-393 renal cancer; format: cell-based; conditions: Homo sapiens
Procedure: as §1

[10] = test system: NCI-H226; assay: NCI in vitro tumor cell screen, NCI-H226 non-small cell lung cancer; format: cell-based; conditions: Homo sapiens
Procedure: as §1

[11] = test system: KM202L; assay: NCI in vitro tumor cell screen, KM20L2 colon cancer; format: cell-based; conditions: Homo sapiens, KM-20L2
Procedure: as §1

[12] = test system: DU-145; assay: NCI in vitro tumor cell screen, DU-145 prostate cancer; format: cell-based; conditions: Homo sapiens
Procedure: as §1, §2

[13] = test system: OVCAR-4; assay: NCI in vitro tumor cell screen, OVCAR-4 ovarian cancer; format: cell-based; conditions: Homo sapiens
Procedure: as §1

[14] = test system: SF-295; assay: NCI in vitro tumor cell screen, SF-295 CNS tumor; format: cell-based; conditions: Homo sapiens, SF-295; read-out: logGI50 (converted)
Procedure: as §1, §2

[15] = test system: K-562; assay: NCI in vitro tumor cell screen, K-562 leukemia; format: cell-based; conditions: Homo sapiens, K562
Procedure: as §1

[16] = test system: HCT116; assay: NCI in vitro tumor cell screen, HCT116 colon cancer; format: cell-based; conditions: Homo sapiens, HCT-116
Procedure: as §1

SMILES	GI50 [1] [nM]	IC50 [2] [nM]	GI50 ([3]; SF-268, read-out: logGI50 (converted)) [nM]	breaks in protein-linked DNA [4]	ICB (% inhibition of colchicine binding) [5] [%]	GI50 [6] [nM]	GI50 [7] [nM]	GI50 [8] [nM]	GI50 [9] [nM]	GI50 [10] [nM]	GI50 ([3]; SF-268, CNS tumor, read-out: logGI50 (converted)) [nM]	GI50 [11] [nM]	GI50 [12] [nM]	GI50 [13] [nM]	GI50 [14] [nM]	GI50 [15] [nM]	GI50 [16] [nM]
COc1cccc(-c2cc(O)c3cc(NC(C)=O)ccc3n2)c1 [compound 27, 3'-Methoxy-6-acetamido-2-phenyl-4-quinolone]	20000	2100 ± 500	5500	no detectable breaks in protein-linked DNA													
COc1cccc(-c2cc(O)c3cc(Cl)ccc3n2)c1 [compound 24, 3'-Methoxy-6-chloro-2-phenyl-4-quinolone]		700 ± 200		no detectable breaks in protein-linked DNA	16 ± 5												
O=c1cc(-c2cccc(OCc3ccccc3)c2)[nH]c2cc3c(cc12)OCO3 [compound 19, 3'-Benzyloxy-6,7-methylenedioxy-2-phenyl-4-quinolone]	676	450 ± 30			26 ± 5	145	282	245	407	229	12900	224	1100	> 100000	447	363	389
O=c1cc(-c2cccc(OC(F)(F)F)c2)[nH]c2cc3c(cc12)OCO3 [compound 17, 3'-Trifluoromethoxy-6,7-methylenedioxy-2-phenyl-4-quinolone]	417	500 ± 100			40 ± 5	< 10	170	63.1	40.7	195		36.3	45.7	25.7	25.7	36.3	14.1
